Test results from ChEMBL document CHEMBL1147307, “Cytotoxic macrolides from a cultured marine dinoflagellate of the genus Amphidinium” (J Nat Prod, 1989).
Converted amounts (≈) assume the structure as drawn.

System: L1210
Assay: Cytotoxicity against mouse L1210 cells
Type: functional, cell-based

**Q.** With `C=C1/C=C(\C)C(C)(O)CC(O)CC(=O)C(O)C(O)C(C)CC(C)OC(=O)/C(C)=C/CC/C=C/C(OC)C(O)CC(C)C1` (stereo unspecified) as the compound, how does the IC50 read?
**A.** Its IC50 is 0.081 µg/mL (≈ 0.136 µM).
